# Measured values as given in patent EP2632470B1 (priority 2010, dated 2012).
# Structures can show the parent of a compound that is named as a salt. Where two headings read alike, the source gives them in different places.
# Legend:
# M. furfur 7982 = experiment: Fractional Inhibitor Concentration (FIC) test of chelator combined with ZPT; type: cell-based; conditions: combination with ZPT (from 12.5ppm); chelator from 400ppm or 800ppm; 33°C, 2 days; average of duplicate plates
# Excerpt: Fractional Inhibitor Concentration (FIC) is a conventional methodology for evaluating antimicrobial interactions. In an embodiment of the present invention, an FIC is used to determine combinatorial effects of two chemicals on anti-Malassezia activity in a tissue culture setting.
# • 1. Each FIC assay is run in duplicate. • 2. Low levels of M. furfur 7982 cells are inoculated into each well of a 96 well plate. • 3. Chemical #1 (in our assays, this is always ZPT) is titrated (2x concentration reductions) from right to left across each row of the plate, starting at 12.5ppm final concentration and ending at 0ppm. • 4. […] Plates are incubated at 33°C, 60%RH for 2 days with agitation. • 6. Optical densities (OD's) are then determined using a spectrophotometer.
# 1. […]. The lowest concentration value of chemical #1, both by itself and with the lowest concentration of chemical #1 which boosts chemical #2's potency, that inhibit growth are determined (see Appendix 1). 4. Likewise, the lowest concentration of chemical #2, both by itself and with the lowest concentration of chemical #2 that boosts chemical #1's potency, that inhibit growth are determined (see Appendix 1). 5. The FIC value for the duplicate plates is determined using the calculations below: FIC = (lowest inhibitory dose of Chemical#1 by itself)/(inhibitory dose of Chemical#1 in a well that also contains Chemical#2also contains Chemical#1) + (lowest inhibitory dose of Chemical#2by itselflowest)/(lowest inhibitory dose of Chemical#2in a well that) [formula] ave FIC VALUE = (FIC value for plate 1+FIC value for plate2); 2 [formula] 6. The average FIC value is then determined, and the combinatorial effect of the two chemicals is classified according to the chart below: […]
# Malassezia furfur = experiment: Intrinsic anti-Malassezia potency, growth inhibition by optical density; type: cell-based
# Method: To measure the growth inhibition properties of test materials against Malassezia, we carried out the following protocol.
# Starting cultures are prepared by incubating with shaking at 31°. Cells (5 ml of culture) are collected by centrifugation and suspended in 50 ml fresh mDixon medium. […] The plates are shaken vigorously on a Heidolph Titramax 100 overnight at 31°. To increase the humidity, water-soaked cotton batting is placed over the plates.
# As a control, the optical density of untreated M. furfur is measured after overnight incubation. As another control, the optical density of the starting culture is measured. The difference between these optical densities represents the amount of growth of M. furfur.
# [1] = Malassezia furfur, read-out: Intrinsic Anti-Malassezia Potency (IC50, µM)
# [2] = Malassezia furfur, mDixon medium, overnight at 31°, optical density 600 nm, read-out: Intrinsic Anti-Malassezia Potency (IC50)
Compound,IC50 (Malassezia furfur; [2]) [µM],also measured
"1,2-Dimethyl-3-hydroxy-4-pyridone, Zinc salt",,FIC (M. furfur 7982): 0.5
"O=C(O)CN(CC(=O)O)[C@@H]1CCCC[C@H]1N(CC(=O)O)CC(=O)O (relative stereo) [trans-1,2-Cyclohexylenedinitrilotetraacetic acid]",,IC50 (Malassezia furfur; [1]): 500 µM
"C1CNCCNCCNCCNCCNCCN1 [1,4,7,10,13,16-Hexaazacyclooctadecane]",> 500,
"O=C(O)CN1CCCN(CC(=O)O)CCN(CC(=O)O)CCCN(CC(=O)O)CC1 [1,4,8,11-Tetraazacyclotetradecane-N,N',N"",N'''-tetraacetic acid]",> 500,
"S=C(N=Nc1ccccc1)NNc1ccccc1 [1,5-Diphenyl-1,2,4,5-tetraazapent-1-en-3-thione]",62.5,
"c1cnc2c(c1)ccc1cccnc12 [1,10-Phenanthroline]",166,
Oc1ccc2ccccc2c1N=Nc1nccs1 [1-(2-Thiazoylazo)-2-naphthol],250,
"CC(C)c1cccc(O)c(=O)c1 [1-Hydroxy-4-(1-methylethyl)cyclohepta-3,5,7-trien-2-one]",,IC50 (Malassezia furfur; [1]): 65 µM
"c1ccc(-c2cccc(-c3ccccn3)n2)nc1 [2,2':6',2""-terpyridine]",86,
"Cc1ccc2ccc3ccc(C)nc3c2n1 [2,9-dimethyl-1,10-phenanthroline]",> 480,
NCCc1ccccn1 [2-(2-aminoethyl)-pyridine],> 500,
"Cc1c(O)c(=O)ccn1C [3-Hydroxy-1,2-dimethyl-4(1H)-pyridone]",719,
Oc1ccc(N=Nc2nccs2)c(O)c1 [4-(2-thiazolylazo)-resorcinol],> 900,
"Oc1c(Cl)cc(Cl)c2cccnc12 [5,7-dichloro-8-hydroxyquinoline]",23.4,
Oc1c(I)cc(Cl)c2cccnc12 [5-Chloro-8-hydroxy-7-iodoquinoline],65.5,
Oc1cccc2cccnc12 [8-hydroxyquinoline],138,

Compound,IC50 (Malassezia furfur; [2]) [µM],also measured
"O=C(O)CN(CCN(CC(=O)O)CC(=O)O)CC(=O)O [Ethylenediaminetetraacetic acid (EDTA), Ethylenediaminetetraacetic acid]",,IC50 (Malassezia furfur; [1]): > 500 µM; anti-fungal effectiveness (in words) (Malassezia furfur; comment on Table 1 data): not to be effective
CCC(NCCNC(CC)C(=O)O)C(=O)O (stereo not shown) [Ethylenediiminodi-2-butanoic acid],,IC50 (Malassezia furfur; [1]): > 500 µM
"CCCCCCCCOc1cccc(=O)n1O [HP-101, N-Hydroxy-6-octyloxypyridine-2(1H)one, ethanolamine salt]",54.6,FIC (M. furfur 7982): 0.62
N[C@@H](COP(=O)(O)O)C(=O)O [L-2-Amino-3-phosphopropanoic acid],,IC50 (Malassezia furfur; [1]): > 500 µM
"c1ccc(CN(CCN(Cc2ccccn2)Cc2ccccn2)Cc2ccccn2)nc1 [N,N,N',N-tetrakis(2-pyridylmethyl) ethylenediamine]",71,
"O=C(O)CN(CCO)CCO [N,N-Bis(2-hydroxyethyl)glycine (Bicine), N,N-Bis(2-hydroxyethyl)glycine]",> 500,
"O=C1c2cccc3cccc(c23)C(=O)N1O [N,N-Naphthaloylhydroxylamine]",,FIC (M. furfur 7982): 0.8
Cc1occc(=S)c1O [Thiomaltol],,FIC (M. furfur 7982): 0.8
"NCCC(=O)N[C@@H](Cc1c[nH]cn1)C(=O)O [beta-Alanyl-L-histidine (L-Carnosine), beta-Alanyl-L-histidine]",> 500,
O=c1cc(CO)occ1O [kojic acid],704,
Cc1occc(=O)c1O [maltol],793,
"Benzohydroxamic acid, Zinc Salt",,FIC (M. furfur 7982): 0.3
"Maltol, Zinc salt",,FIC (M. furfur 7982): 0.1
"N-Hydroxy-6-octyloxypyridine-2(1H)one, zinc salt [HP-100 Zn]",,FIC (M. furfur 7982): 0.7
"Thiomaltol, Zinc salt",,FIC (M. furfur 7982): 0.5
zinc salt of 1-hydroxy-2-pyridinethione [Zinc Pyrithione],,"IC50 (Malassezia furfur; mDixon medium, overnight at 31°, optical density 600 nm, read-out: Intrinsic Anti-Malassezia Potency (IC50)): 15 µM"
